The text below walks through data of patent publication US12171744B2, “Pharmaceutical combinations for the treatment of cancer” (Presage Biosciences, Inc., priority 2016, dated 2024).

In data set [1] the test system is HCC1187 triple negative breast cancer cells. As to the kind of experiment: Western blot of treated cells. The class given is cell-based. The note with it: for XBP1 expression: at 24 hours. The protocol:
Cell lines shown in Table 1, adherent or suspension, were treated in 6-well dishes or T10 flasks respectively, seeded at one million per ml density prior to treatment in total volumes of 3-10 ml. All agents used for in vitro cell treatments were formulated in water/DMSO to achieve required concentrations (as stated in respective figure labels/legends) with DMSO concentrations not exceeding 0.01%. Drug sources are indicated in table under ‘CIVO microinjection studies’. Cells were harvested at experimental time points: 2, 6, or 24 hours post treatment as indicated in respective figures, first by washing cells twice in ice-cold PBS in 15 ml falcon tubes, centrifugation at 1000 rpm for 5 mins followed by lysis of the respective cell pellets as described in section below. Note: Drug resistant NUDHL1 Dox 1000 nM and Toledo Dox 1000 nM cell lines were generated at Presage by culturing parental lines in media with stepwise increments in Doxorubicin concentration over several passages. These cells were used to generate xenografts when resistance to 1 uM Dox was achieved.
Protein lysates were prepared by adding ice-cold 1×RIPA Buffer (from 10×, Millipore) with 1×-3× Halt protease and phosphatase inhibitor cocktail (100×, Pierce) to cell pellets, followed by pulse sonication (˜3-5 secs) three times. Lysates were cleared by centrifugation at 14K rpm for 15-20 mins and the supernatant (lysate) was collected for further analysis. To prepare lysates from cryopreserved xenograft tumor tissue, tissue was first homogenized using a hand-held tissue homogenizer (Cole Palmer) in above lysis buffer followed by pulse sonication and centrifugation as described above. Above steps were carried out under ice cold conditions. […] 20-25 micrograms of protein from each sample were subject to SDS-PAGE using BOLT 4-12% Bis-Tris gels (Thermofisher) and transferred to either 0.45 or 0.2 micron pore size membranes (as applicable based on protein molecular size), and either nitrocellulose (NC) or pvdf (Thermofisher) using manufacturer's protocol, blocked for one hour in 5% milk at room temperature, probed with primary antibodies (Table 2) at 4 deg C. overnight and corresponding HRP-conjugated secondary antibodies (Jackson Immunoresearch, 1:10,000-1:20,000 dilutions) for 1 hour at room temperature. Three PBS/0.01% Tween-20 washes (5-10 mins each) were carried out after each antibody incubation. ECL chemiluminescent substrate (Pierce or GE) and autoradiographic film (Thermofisher) was used for detection of protein signals.
1 ug of mRNA from each condition was used to generate cDNA using the High Capacity cDNA Reverse Transcription Kit (Applied Biosystems) and manufacturer's protocol. 100 ng cDNA was used to conduct a PCR assay to amplify XBP1 u or splice forms (Thermofisher PCR Supermix)—94 deg C. for 2 mins, (94 deg C. for 15 secs, 55 deg C. for 30 secs, 72 deg C. for 1 min)×30 cycles, 72 deg C. for 7 mins, hold at 4 deg C.

Data set [2] has as its target ICK (Homo sapiens, UniProt Q9UPZ9). As to the kind of experiment: Kinase inhibition profile. The class given is biochemical.
The target of data set [3] is MAK (Homo sapiens, UniProt P20794). As to the kind of experiment: Kinase inhibition profile.
Chain of MAK (P20794 whole entry): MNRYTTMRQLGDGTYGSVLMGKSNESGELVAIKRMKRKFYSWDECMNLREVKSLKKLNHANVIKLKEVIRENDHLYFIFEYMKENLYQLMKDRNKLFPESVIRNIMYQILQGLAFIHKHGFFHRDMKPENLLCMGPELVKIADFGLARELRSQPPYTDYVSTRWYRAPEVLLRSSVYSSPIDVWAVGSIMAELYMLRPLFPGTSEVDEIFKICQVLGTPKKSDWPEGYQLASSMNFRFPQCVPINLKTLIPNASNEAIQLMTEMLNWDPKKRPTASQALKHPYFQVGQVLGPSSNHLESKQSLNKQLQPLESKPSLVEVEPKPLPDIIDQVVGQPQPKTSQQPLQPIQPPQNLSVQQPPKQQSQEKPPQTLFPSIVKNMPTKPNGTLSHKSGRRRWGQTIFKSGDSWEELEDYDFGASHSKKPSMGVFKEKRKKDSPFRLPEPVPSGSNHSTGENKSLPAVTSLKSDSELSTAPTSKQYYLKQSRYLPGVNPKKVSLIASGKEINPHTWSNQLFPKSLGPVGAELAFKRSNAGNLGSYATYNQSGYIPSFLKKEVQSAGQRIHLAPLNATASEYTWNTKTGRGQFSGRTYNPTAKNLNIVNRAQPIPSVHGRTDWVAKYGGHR
Data set [4] has as its system HCC1187 triple negative breast cancer (TNBC) xenograft model. The data set is described as follows: CIVO microinjection, MCL-1 and CC3 staining. In kind it is in vivo, mice. The note with it: for CC3 expression: marker of apoptosis; for expression of MCL-1: drug screen. The protocol:
(§1) Mice were enrolled into CIVO drug studies when the tumor volume reached approximately 1000 mm^3. Microinjection studies were performed using the CIVO device as previously described (Klinghoffer et al, Science Translational Medicine 2015) The device was configured with 6 injection needles set for a 6 mm injection length and a total volume delivery of 3 μl. A fluorescent tracking marker (FTM) was added to each drug reservoir in vehicle for delivery along with each drug or drug combination. All micro-doses were equivalent to or lower than what would be allowed under FDA guidelines for Exploratory IND (Investigational New Drug) studies and by solubility of drug into vehicle. Total amounts of agents injected are tabulated below in Table 4.
A drug screen was performed to test multiple drugs simultaneously.
FIG. 11 depicts a similar experiment performed on the HCC1187 triple negative breast cancer (TNBC) xenograft model. […] Cells were then stained for CC3 expression (shown in red) as a marker of apoptosis.
FIGS. 20A-20D depicts the HCC1187 triple negative breast cancer (TNBC) xenograft model. Briefly, cells were treated with vehicle, voruciclib alone, ixazomib alone, or voruciclib and ixazomib in combination. Cells were then stained for CC3 expression (shown in red) as a marker of apoptosis.

For data set [5], the system named is tumor cells. As to the kind of experiment: Solid tumor section, CDK inhibitors in combination with ixazomib. Also on record: species or system mice. The note with it: mouse, in vivo. How it is done: as §1
Data set [6] relates to NudHL1 DLBCL xenografts. As to the kind of experiment: CIVO microinjection, CC3 staining after 6 hours. In kind it is in vivo, mice. As to conditions: treated for 6 hours. The protocol: Mice were enrolled into CIVO drug studies when the tumor volume reached approximately 1000 mm^3. Microinjection studies were performed using the CIVO device as previously described (Klinghoffer et al, Science Translational Medicine 2015) The device was configured with 6 injection needles set for a 6 mm injection length and a total volume delivery of 3 μl. A fluorescent tracking marker (FTM) was added to each drug reservoir in vehicle for delivery along with each drug or drug combination. […] Total amounts of agents injected are tabulated below in Table 4.
FIGS. 9A-9D depict cells that were treated as above and stained for cleaved caspase-3 (CC3) as a marker of apoptosis (shown in red).
FIGS. 10A-10D depict cells that were treated as above and stained for cleaved caspase-3 (CC3) as a marker of apoptosis (shown in red).

The test system of data set [7] is tissue section. As to the kind of experiment: Tissue section treated with bortezomib. The class given is in vivo. The note with it: some cells appear resistant.
Data set [8] can be described thus: Body weight in HCC1187 TNBC mouse model. As to conditions: in vivo.
Description: Mice were enrolled for study when tumors reached an average volume of 150-200 mm^3. Tumor volume was calculated as V=length×width×height, all three dimensions measured using digital calipers along with body weight. Animals were removed from the study when—any one of the three measured dimensions of the tumor exceeding 2 cm, volume exceeding 2500 mm^3, ulceration or body weight loss greater than 20%.

Chain of ICK (Q9UPZ9 whole entry): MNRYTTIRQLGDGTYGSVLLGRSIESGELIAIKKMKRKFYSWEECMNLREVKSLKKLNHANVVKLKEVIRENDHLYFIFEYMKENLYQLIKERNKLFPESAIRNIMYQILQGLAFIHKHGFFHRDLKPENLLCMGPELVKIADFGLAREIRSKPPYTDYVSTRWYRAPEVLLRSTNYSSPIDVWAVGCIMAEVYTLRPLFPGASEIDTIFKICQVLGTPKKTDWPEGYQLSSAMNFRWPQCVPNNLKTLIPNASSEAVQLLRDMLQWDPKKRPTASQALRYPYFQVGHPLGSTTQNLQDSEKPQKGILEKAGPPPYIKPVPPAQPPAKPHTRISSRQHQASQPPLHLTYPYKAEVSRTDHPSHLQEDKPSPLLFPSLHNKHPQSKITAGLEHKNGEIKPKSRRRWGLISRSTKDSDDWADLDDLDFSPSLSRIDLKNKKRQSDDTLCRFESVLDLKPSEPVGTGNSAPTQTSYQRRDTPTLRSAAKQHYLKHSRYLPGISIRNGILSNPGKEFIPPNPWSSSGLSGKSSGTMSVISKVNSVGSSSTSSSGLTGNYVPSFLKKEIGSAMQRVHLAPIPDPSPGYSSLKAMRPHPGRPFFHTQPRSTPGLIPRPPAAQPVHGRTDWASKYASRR

As to tunicamycin [reference compound], the “X-box binding protein 1 (XBP1) expression” value in data set [1] (at 6 hours) is given as “strongly induced”. Further, the XBP1 expression result in data set [1] was “strongly induced”.
As for `CN1CC[C@H](c2c(O)cc(O)c3c(=O)cc(-c4ccccc4Cl)oc23)[C@H](O)C1` [flavopiradol, reference compound], in data set [2], the “inhibition of ICK” value is “potent inhibitor”. For the same molecule, in data set [3], the “inhibition of MAK” value was “potent inhibitor”.
For the molecule `CC(C)C[C@H](NC(=O)CNC(=O)c1cc(Cl)ccc1Cl)B(O)O` [ixazomib], in data set [4], the CC3 expression entry is “little to no increase”. For the same molecule, the “synergistic effect on apoptosis of tumor cells” value in data set [5] was “did not exhibit the synergistic effect”.
For the molecule `C[C@@]12OC(=O)[C@]1([C@@H](O)[C@@H]1C=CCCC1)NC(=O)[C@@H]2CCCl` [marizomib], the CC3 expression result in data set [6] is “little to no increase”.
For the molecule `CC(C)C[C@H](NC(=O)[C@H](Cc1ccccc1)NC(=O)c1cnccn1)B(O)O` [bortezomib], the “expression of MCL-1” value is recorded as “increase” in data set [4] and “markedly increased” in data set [4] (listed as Bortezomib). Also, the CC3 expression result in data set [4] and in data set [6] was “little to no increase” throughout. In data set [1] (Western blot, compared to untreated sample), the MCL-1 protein expression entry is recorded as “increased”. In addition, in data set [1], the XBP1 expression entry is given as “strongly induced”. Further, in data set [7], the apoptosis result is “induces apoptosis in some cells”. Besides, the “body weight of mice” value in data set [8] is reported as “unaffected”.
